# Active and inactive are the calls of the source.
# Molecular target: T1, Heat shock factor protein 1 (Mus musculus, UniProt P38532)
# T1 sequence (P38532 whole entry): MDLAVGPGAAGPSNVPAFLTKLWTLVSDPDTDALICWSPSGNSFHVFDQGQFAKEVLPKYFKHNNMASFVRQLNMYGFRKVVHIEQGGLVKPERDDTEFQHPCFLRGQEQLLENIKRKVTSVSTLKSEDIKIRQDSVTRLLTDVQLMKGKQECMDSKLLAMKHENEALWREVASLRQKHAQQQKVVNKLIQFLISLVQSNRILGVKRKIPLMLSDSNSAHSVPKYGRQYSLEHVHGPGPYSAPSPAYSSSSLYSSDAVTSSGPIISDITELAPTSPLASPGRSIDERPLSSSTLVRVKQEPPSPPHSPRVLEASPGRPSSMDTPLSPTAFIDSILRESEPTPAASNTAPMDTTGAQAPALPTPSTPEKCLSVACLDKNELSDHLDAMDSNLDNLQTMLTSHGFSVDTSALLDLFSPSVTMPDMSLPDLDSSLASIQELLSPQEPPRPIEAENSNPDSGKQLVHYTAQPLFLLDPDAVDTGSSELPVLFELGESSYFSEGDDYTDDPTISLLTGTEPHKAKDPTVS
# Assay: HSF1 potentiators in luciferase reporter cells, confirmation, cell-based, NIH3T3, luminescence, dose retest (AID 435004);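 note: stress induced by proteasome inhibitor MG132 added 30 min after compound; luciferase reporter driven by HSF1 response element in NIH3T3 cells; actives raise luminescence as potentiators of the MG132 stress response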
# Type: functional
# Details: not given
row,Structure (SMILES),EC50
1,CC(=O)c1c(C)[nH]c(C(=O)Nc2cccc(C)n2)c1C,> 260 µM (inactive)
2,O=C1C2CCCCC2C(=O)N1Cc1ccccc1 (centres undefined),> 260 µM (inactive)
3,CC(C)CC(NS(=O)(=O)c1ccc2c(c1)oc(=O)n2C)C(=O)NC1CCCc2ccccc21 (centres undefined),> 260 µM (inactive)
4,COC(=O)C1CCN(C(=O)Cc2c(OC)ccc3cc(Br)ccc23)CC1,68.2 µM (active)
5,O=C(C1=C[C@@H](C2CC2)C[C@@H](OCc2ccc(CO)cc2)O1)N1CCN(Cc2ccccc2)CC1,> 260 µM (inactive)
6,Nc1n[nH]c(SCC(=O)Nc2ccc([N+](=O)[O-])cc2Br)n1,> 260 µM (inactive)
7,COc1ccc(C2(C)NC(=O)N(CC3CCCCC3)C2=O)cc1 (centres undefined),> 260 µM (inactive)
8,Cc1ccccc1-c1cc(=O)c2c(O)cccc2o1,> 260 µM (inactive)
9,COc1cc(C2NC(=O)NC(C)=C2C(=O)OC2CCCCC2)cc(Cl)c1O (centres undefined),> 260 µM (inactive)
10,COc1ccc(/C=C/C(=O)OC2CCCN(C)C2)cc1 (centres undefined),> 260 µM (inactive)
11,CCOC(=O)CC1NCCc2c1[nH]c1ccc(OC)cc21 (centres undefined),> 260 µM (inactive)
12,COc1ccccc1-c1ccc(SCC(=O)Nc2cc(C)on2)nn1,> 260 µM (inactive)
13,CO/N=C/c1cc([N+](=O)[O-])ccc1Sc1ccc(C)cc1,> 260 µM (inactive)

# Test system: INS1
# Assay: beta cell apoptosis inhibitors, cytokine rescue, dose response, luminescence, retest (AID 449756);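 note: cell death triggered by IL-1 beta plus TNF-alpha plus IFN-gamma mixture; protective hits raise ATP signal compared with cytokine alone wells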
# Type: functional, cell-based
# Details: Rattus norvegicus
row,Structure (SMILES),AC50
1,CCOc1ccc2nc(NC(=O)c3cccc(-c4cc5ccccc5oc4=O)c3)sc2c1,3.24 µM (active)
2,Cc1cc(C(=O)C(C)OC(=O)c2ccc(NC(=O)CC#N)cc2)c(C)n1-c1ccc(OC(F)F)cc1 (centres undefined),4.26 µM (active)
3,C/C(=N\NC(=O)c1ccoc1C)c1ccccc1O,3.12 µM (active)

# Molecular target: T2, Rac GTPase-activating protein 1 (Homo sapiens, UniProt Q9H0H5)
# T2 sequence (Q9H0H5 whole entry): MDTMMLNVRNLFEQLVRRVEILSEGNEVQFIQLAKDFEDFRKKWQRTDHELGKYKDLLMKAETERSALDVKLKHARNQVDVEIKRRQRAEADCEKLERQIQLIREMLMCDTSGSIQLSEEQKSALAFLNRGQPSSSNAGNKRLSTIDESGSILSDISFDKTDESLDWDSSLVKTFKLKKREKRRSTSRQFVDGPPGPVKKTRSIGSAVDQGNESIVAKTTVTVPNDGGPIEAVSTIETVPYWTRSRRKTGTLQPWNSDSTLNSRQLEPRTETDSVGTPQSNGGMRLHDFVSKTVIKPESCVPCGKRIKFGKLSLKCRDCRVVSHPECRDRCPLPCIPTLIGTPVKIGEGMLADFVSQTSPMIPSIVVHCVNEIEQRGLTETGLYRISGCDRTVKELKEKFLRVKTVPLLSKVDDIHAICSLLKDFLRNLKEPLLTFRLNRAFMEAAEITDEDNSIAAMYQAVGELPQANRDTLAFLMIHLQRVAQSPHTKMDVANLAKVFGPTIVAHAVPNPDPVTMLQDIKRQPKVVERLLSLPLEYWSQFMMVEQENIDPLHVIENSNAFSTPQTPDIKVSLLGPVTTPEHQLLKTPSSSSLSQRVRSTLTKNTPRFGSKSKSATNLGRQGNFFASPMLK
# Assay: MgcRacGAP GTPase-activating activity inhibitors, confirmation, biochemical, ADP Hunter fluorescence, primary and confirmatory (AID 624330)
# Type: functional
# Details: not given
row,Structure (SMILES),IC50
1,O=C1NC(=O)C(=Cc2coc3ccc(O)cc3c2=O)C(=O)N1,150 µM (active)
2,COc1cc(/C(C)=N/N2CCN(Cc3ccc(C)cc3)CC2)ccc1O,271 µM (active)

# Test system: not listed separately
# Assay: cells
# Type: functional
# Details: not given
row,Structure (SMILES),IC50
1,COc1ccc(C(=O)OCn2nnc3ccccc3c2=O)cc1[N+](=O)[O-],7.55 µM (active)
2,O=C(CCNc1ccc(Cl)cc1)c1cccs1,25.5 µM (active)
3,C=Cc1cccc(NC(=O)COc2ccccc2)c1,> 50 µM (active)
4,CCOC(=O)c1cc(-c2cccc([N+](=O)[O-])c2)on1,10.3 µM (active)
5,COc1ccc(C(=O)COC(=O)COc2ccc(C)c(C)c2)cc1,> 50 µM (active)
6,CC(C)Cc1nnc(NC(=O)CCS(=O)(=O)c2ccc(Cl)cc2)s1,36 µM (active)

# Molecular target: FAD-linked sulfhydryl oxidase ALR (Homo sapiens, UniProt P55789)
# Assay: inhibitors of human ALR sulfhydryl oxidase, dose response, biochemical, H2O2 detection, luminescence, cherry-pick (AID 493248)
# Details: not given
# Chain of FAD-linked sulfhydryl oxidase ALR (P55789 whole entry): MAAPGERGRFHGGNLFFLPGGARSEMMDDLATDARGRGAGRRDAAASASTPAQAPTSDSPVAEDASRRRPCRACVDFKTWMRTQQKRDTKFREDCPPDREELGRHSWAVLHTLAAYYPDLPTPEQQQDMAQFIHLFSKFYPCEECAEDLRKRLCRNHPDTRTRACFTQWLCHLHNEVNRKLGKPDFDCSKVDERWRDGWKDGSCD
row,Structure (SMILES),AC50
1,COc1cc(/C(C)=N/N2CCN(Cc3ccc(C)cc3)CC2)ccc1O,7.66 µM (active)

# Molecular target: Genome polyprotein (dengue virus type 2, UniProt P29990)
# Assay: Dengue-2 NS5 methyltransferase inhibitors, primary screen, biochemical, confirmation dose response (AID 588689)
# Type: functional
# Details: not given
# Chain of Genome polyprotein (P29990 2492-3391 limits assumed): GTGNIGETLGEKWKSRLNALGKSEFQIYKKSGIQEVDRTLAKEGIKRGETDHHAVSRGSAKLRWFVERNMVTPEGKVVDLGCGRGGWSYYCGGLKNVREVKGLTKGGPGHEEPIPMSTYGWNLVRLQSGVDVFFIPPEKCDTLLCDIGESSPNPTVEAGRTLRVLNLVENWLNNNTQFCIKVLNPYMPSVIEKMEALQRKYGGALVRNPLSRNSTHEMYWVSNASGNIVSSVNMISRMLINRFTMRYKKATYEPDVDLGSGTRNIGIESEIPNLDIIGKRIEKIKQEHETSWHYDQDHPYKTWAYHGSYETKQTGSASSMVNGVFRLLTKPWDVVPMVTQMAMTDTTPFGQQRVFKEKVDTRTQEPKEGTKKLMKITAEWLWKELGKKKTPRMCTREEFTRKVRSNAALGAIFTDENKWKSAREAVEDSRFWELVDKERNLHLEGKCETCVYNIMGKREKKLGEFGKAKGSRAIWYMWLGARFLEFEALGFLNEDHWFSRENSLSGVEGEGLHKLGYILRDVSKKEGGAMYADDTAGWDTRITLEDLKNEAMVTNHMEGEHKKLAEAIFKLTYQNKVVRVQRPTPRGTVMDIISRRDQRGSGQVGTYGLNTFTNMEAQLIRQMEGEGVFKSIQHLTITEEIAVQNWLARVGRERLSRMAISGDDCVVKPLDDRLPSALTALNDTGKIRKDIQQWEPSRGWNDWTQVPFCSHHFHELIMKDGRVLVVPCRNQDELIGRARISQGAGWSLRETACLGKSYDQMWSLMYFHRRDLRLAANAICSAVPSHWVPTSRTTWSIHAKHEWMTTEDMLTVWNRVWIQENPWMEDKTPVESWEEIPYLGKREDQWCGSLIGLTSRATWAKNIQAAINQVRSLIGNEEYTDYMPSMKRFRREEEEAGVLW
row,Structure (SMILES),IC50
1,O=C1NC(=O)C(=Cc2ccc(N3CCN(C(=O)c4ccccc4)CC3)c([N+](=O)[O-])c2)C(=O)N1,19.8 µM (active)
2,O=C1NC(=O)C(=Cc2coc3ccc(O)cc3c2=O)C(=O)N1,> 100 µM (active)
3,COc1cc(/C=C2/C(=O)NN(c3ccc(F)cc3)C2=O)cc([N+](=O)[O-])c1O,> 100 µM (active)
4,Cc1noc(NS(=O)(=O)c2ccc(NC(=O)c3ccccc3NS(=O)(=O)c3ccc(F)c(F)c3)cc2)c1C,33.2 µM (active)
